Source: the supplement of paper PMC3974653
Where a name gives a salt, the structure may show the parent alone.

Tested on: MTT (mouse pheochromocytoma)
Test: IC50 of cell viability (ATP content)
Conditions: (24 or 48 h)
In short: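 Cells of the MTT mouse pheochromocytoma line, 5 µl per well at 200,000 cells/ml, were grown overnight at 37°C, 5% CO2 in white 1536-well plates with DMEM, 5% FBS and 1% horse serum. Pintool transfer then delivered 23 nl of library compound in DMSO, giving 8 final concentrations from 0.5 nM to 46 µM, for an exposure of 24 or 48 hrs. Luminescence from CellTiter-Glo was read after 15 minutes and referenced to positive-control wells (100%) and DMSO wells (0%). IC50 was calculated with a four-parameter logistic fit.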

SMILES: CN1C2CCC1C(C(=O)O)C(OC(=O)c1ccccc1)C2 (single isomer, unassigned; (-)) [(-)-Benzoylecgonine]
- IC50 of cell viability: > 46 µM

SMILES: CCC(=O)O[C@H]1C(O[C@@H]2C(C)[C@H](O[C@H]3C[C@@](C)(OC)C(O)C(C)O3)C(C)C(=O)OC(CC)[C@@](C)(O)C(O)[C@H](C)C(=O)C(C)C[C@]2(C)O)OC(C)CC1N(C)C.CCCCCCCCCCCCO[S+](=O)([O-])O (stereo not given in full) [ERYTHROMYCIN ESTOLATE]
- IC50 of cell viability: > 46 µM

SMILES: Nc1ccc([S+](=O)([O-])Nc2ccnn2-c2ccccc2)cc1 [Sulfaphenazole]
- IC50 of cell viability: > 46 µM

SMILES: CN1C(=O)C(O)N=C(c2ccccc2)c2cc(Cl)ccc21 (stereo not given) [Temazepam]
- IC50 of cell viability: > 46 µM

SMILES: CCCCCC(C)N.O=[S+]([O-])(O)O (stereo not given) [TUAMINOHEPTANE SULFATE]
- IC50 of cell viability: > 46 µM

SMILES: NC(=O)c1ccccc1O [SALICYLAMIDE]
- IC50 of cell viability: > 46 µM

SMILES: CCCCCC(=O)O[C@@]1(CC[C@H]2[C@@H]3CCC/4=C/C(=O)CC[C@]4(C)[C@H]3CC[C@]12C)C(C)=O [17a-Hydroxyprogesterone hexanoate]
- IC50 of cell viability: > 46 µM

SMILES: N[S+](=O)([O-])c1cc2c(cc1C(F)(F)F)NCN[S+]2(=O)[O-] [Hydroflumethiazide]
- IC50 of cell viability: > 46 µM

SMILES: Cc1cccn2c(=O)c(-c3nnn[n-]3)cnc12 [PEMIROLAST POTASSIUM]
- IC50 of cell viability: > 46 µM

SMILES: COC(=O)C\1=C(C)\N\C(=C(/[C@@H]1C2=CC(=CC=C2)[N+]([O-])=O)C(=O)O[C@@H]3CCCN(C3)CC4=CC=CC=C4)C (racemic) [rac Benidipine Hydrochloride]
- IC50 of cell viability: > 46 µM

SMILES: CN/C(=C\[N+](=O)[O-])NCCSCc1ccc(CN(C)C)o1 [RANITIDINE]
- IC50 of cell viability: > 46 µM

SMILES: COP(=S)(OC)Oc1cc(Cl)c(Cl)cc1Cl [Fenchlorphos]
- IC50 of cell viability: > 46 µM

SMILES: CCC/1=N/N(CCCN2CCN(CC2)C3=CC(=CC=C3)Cl)C(=O)N1CCOC4=CC=CC=C4 [Nefazodone hydrochloride]
- IC50 of cell viability: > 46 µM

SMILES: Cn1nnc2c(C(N)=O)ncn2c1=O [TEMOZOLOMIDE]
- IC50 of cell viability: > 46 µM

SMILES: CNC[C@H](O)c1ccc(O)c(O)c1 [EPINEPHRINE]
- IC50 of cell viability: > 46 µM

SMILES: COc1ccc(OC)c(CC(C)N)c1 (single isomer, unassigned; (-)) [(-)-2,5-Dimethoxyamphetamine]
- IC50 of cell viability: > 46 µM

SMILES: CC([C@H](O)c1ccccc1)N(C)C (stereo partly drawn) [N-METHYL (-)EPHEDRINE]
- IC50 of cell viability: > 46 µM

SMILES: C[N+](C)(CCCCCC[N+](C)(C)C1c2ccccc2-c2ccccc21)C1c2ccccc2-c2ccccc21 [Hexafluorenium dibromide]
- IC50 of cell viability: > 46 µM

SMILES: CC(C)(O)C(Cl)(Cl)Cl [CHLOROBUTANOL]
- IC50 of cell viability: > 46 µM

SMILES: Cl.O=C(COc1ccc(Cl)cc1)N1CCN(Cc2ccc3c(c2)OCO3)CC1 [FIPEXIDE HYDROCHLORIDE]
- IC50 of cell viability: > 46 µM

SMILES: CC(C)c1nc(CN(C)C(=O)N[C@H](C(=O)N[C@@H](Cc2ccccc2)C[C@H](O)[C@H](Cc2ccccc2)NC(=O)OCc2cncs2)C(C)C)cs1 [Ritonavir]
- IC50 of cell viability: > 46 µM

SMILES: C[C@H](O)[C@H]1[C@@H]2C\C(=C(/N2C1=O)C(O)=O)SCCNC=N [Imipenem]
- IC50 of cell viability: > 46 µM

SMILES: O=C(O)CN(CCN(CC(=O)O)CC(=O)O)CCN(CC(=O)O)CC(=O)O [Pentetic acid]
- IC50 of cell viability: > 46 µM

SMILES: Oc1ccc(O)cc1 [Hydroquinone]
- IC50 of cell viability: > 46 µM

SMILES: CCc1cc(Cl)c(OC)c(C(=O)NC[C@@H]2CCCN2CC)c1O [Eticlopride hydrochloride]
- IC50 of cell viability: > 46 µM

SMILES: C[N+]1([O-])[C@@H]2CC(OC(=O)[C@@H](CO)c3ccccc3)C[C@H]1[C@H]1O[C@H]12 (stereo not given in full) [Scopolamin-N-oxide hydrobromide]
- IC50 of cell viability: > 46 µM

SMILES: CN[S+](=O)([O-])CCc1ccc2[nH]cc(C3CCN(C)CC3)c2c1 [Naratriptan Hydrochloride]
- IC50 of cell viability: > 46 µM

SMILES: Cc1c(Cl)cccc1Nc1ccccc1C(=O)O [TOLFENAMIC ACID]
- IC50 of cell viability: > 46 µM

SMILES: C[C@@H]1O[C@@H](O[C@H]\2CC[C@]\3(C)[C@@H]4CC[C@]5(C)[C@@H](CC[C@@]5(O)[C@H]4CCC3=C2)C/6=C/OC(=O)/C=C6)[C@H](O)[C@H](O)[C@@H]1O [Proscillaridin A]
- IC50 of cell viability: > 46 µM

SMILES: Cc1cc(C)c(/C=C2\C(=O)Nc3ccccc32)[nH]1 [SEMAXANIBUM]
- IC50 of cell viability: > 46 µM

SMILES: Cl.OC(CCN1CCCCC1)(c1ccccc1)C1CCCCC1 (stereo not given) [TRIHEXYPHENIDYL HYDROCHLORIDE]
- IC50 of cell viability: > 46 µM

SMILES: COc1ccc(CN(CCN(C)C)c2ncccn2)cc1.Cl [THONZYLAMINE HYDROCHLORIDE]
- IC50 of cell viability: > 46 µM

SMILES: C[N@+]1([O-])[C@@H]2CC[C@@H]1C[C@@H](OC(=O)[C@@H](CO)c1ccccc1)C2 [Atropine-N-oxide hydrochloride]
- IC50 of cell viability: > 46 µM

SMILES: CCCC(C)C1(CC)C(=O)N\C(=N/C1=O)O (stereo not given) [PENTOBARBITAL]
- IC50 of cell viability: > 46 µM

SMILES: COC(=O)C(c1ccccc1)C1CCCCN1.[Cl-].[H+] (stereo not given) [Methylphenidate hydrochloride]
- IC50 of cell viability: > 46 µM

SMILES: COc1ccc2cc(C(C)C(=O)[O-])ccc2c1.[Na+] (stereo in doubt) [(R) -Naproxen sodium salt]
- IC50 of cell viability: > 46 µM

SMILES: C[C@@]12CC[C@H]\3[C@@H](CC\C4=C3CCC(=O)C4)[C@H]1CC[C@]2(O)C#C [Norethynodrel]
- IC50 of cell viability: > 46 µM

SMILES: CN[C@@H](C)[C@H]1CC[C@@H](N)[C@H](O[C@@H]2[C@@H](O)[C@H](O[C@@H]3OC[C@@](C)(O)[C@@H](NC)[C@H]3O)[C@H](N)C[C@@H]2N)O1.CN[C@H]1[C@@H](O)[C@H](O[C@H]2[C@H](O)[C@@H](O[C@@H]3O[C@@H](CN)CC[C@H]3N)[C@@H](N)C[C@H]2N)OC[C@@]1(C)O.CN[C@H]1[C@@H](O)[C@H](O[C@H]2[C@H](O)[C@@H](O[C@@H]3O[C@@H]([C@H](C)N)CC[C@H]3N)[C@@H](N)C[C@H]2N)OC[C@@]1(C)O.O=[S+]([O-])(O)O [Gentamicine sulfate]
- IC50 of cell viability: > 46 µM

SMILES: NC(=O)[C@@H]1CCCN1C(=O)[C@H](Cc1cnc[nH]1)NC(=O)[C@@H]1CCC(=O)N1 [PROTIRELIN]
- IC50 of cell viability: > 46 µM

SMILES: CCC(C)C(N)C(=O)O (stereo not given) [ISOLEUCINE]
- IC50 of cell viability: > 46 µM

SMILES: N=C(N)NC(=N)N1CCOCC1 [Moroxidine hydrochloride]
- IC50 of cell viability: > 46 µM

SMILES: CCN(CC)CCOC(=O)c1ccc(N)cc1 [Procaine hydrochloride]
- IC50 of cell viability: > 46 µM

SMILES: C1C\N=C(\CC2=CC=CC=C2)N1 [Tolazoline hydrochloride]
- IC50 of cell viability: > 46 µM

SMILES: CC(C)(C)NCC(O)c1ccccc1Cl.Cl (stereo not given) [TULOBUTEROL]
- IC50 of cell viability: > 46 µM

SMILES: C=CC(=O)NCNC(=O)C=C [N,N'-Methylenebis(acrylamide)]
- IC50 of cell viability: > 46 µM

SMILES: FC(F)(F)C(Cl)Br (stereo not given) [Halothane]
- IC50 of cell viability: > 46 µM

SMILES: CO[C@H]1C[C@H](O[C@@H]2[C@H](C)[C@H](O[C@@H]3O[C@@H](C)C[C@@H](N(C)C)[C@H]3O)[C@H](C)C[C@]3(CO3)C(=O)[C@H](C)[C@H](O)[C@H](C)[C@H](C)OC(=O)[C@@H]2C)O[C@@H](C)[C@H]1O [Oleandomycin phosphate]
- IC50 of cell viability: > 46 µM

SMILES: CCCCc1cc2c(=O)c(C(=O)OC)c[nH]c2cc1OCc1ccccc1 [NEQUINATE]
- IC50 of cell viability: > 46 µM

SMILES: NCC1O[C@@H](OC2C(N)C[C@H](N)[C@@H](O[C@H]3OC(CO)C(O)C(N)C3O)C2O)C(N)C(O)C1O (stereo not given in full) [KANAMYCIN B]
- IC50 of cell viability: > 46 µM

SMILES: C/C(=C(/CCO)SS/C(CCO)=C(\C)N(C=O)Cc1cnc(C)nc1N)N(C=O)Cc1cnc(C)nc1N [THIAMINE DISULFIDE]
- IC50 of cell viability: > 46 µM

SMILES: CCCC1CCCCN1 (stereo not given) [CONIINE]
- IC50 of cell viability: > 46 µM

SMILES: COc1ccccc1N1CCNCC1.Cl [1-(2-Methoxyphenyl)piperazine hydrochloride]
- IC50 of cell viability: > 46 µM

SMILES: CC(CN(C)C)CN1c2ccccc2[S+](=O)([O-])c2ccccc21 (stereo not given) [OXOMEMAZINE HCl]
- IC50 of cell viability: > 46 µM

SMILES: CNC(=O)[C@H](Cc1c[nH]c2ccccc12)NC(=O)[C@@H](CC(=O)NO)CC(C)C [ILOMASTATUM]
- IC50 of cell viability: > 46 µM

SMILES: CC[C@H](C)C(=O)O[C@H]1C[C@@H](C)\C=C2\C=C/[C@H](C)[C@H](CC[C@@H]3C[C@@H](O)CC(=O)O3)[C@@H]12 [Lovastatin]
- IC50 of cell viability: > 46 µM

SMILES: O=C(Oc1ccccc1C(=O)O)c1ccccc1O [SALSALATE]
- IC50 of cell viability: > 46 µM

SMILES: O=C(OCC1(COC(=O)c2cccnc2)CCCC(COC(=O)c2cccnc2)(COC(=O)c2cccnc2)C1O)c1cccnc1 [Nicomolol]
- IC50 of cell viability: > 46 µM

SMILES: C1CNCCN1 [Piperazine]
- IC50 of cell viability: > 46 µM

SMILES: Cc1cccc(C)c1NC(=O)c1cc([S+](N)(=O)[O-])c(Cl)cc1O [Xipamide]
- IC50 of cell viability: > 46 µM

SMILES: N#C/C(=C1/SC[C@@H](c2ccc(Cl)cc2Cl)S1)n1ccnc1 [LULICONAZOLE]
- IC50 of cell viability: > 46 µM
